From PubChem BioAssay AID248 (DTP/NCI, 2004)
Where “and” joins values, the source holds several entries; their conditions need not be identical. Equal entries are not always repeated. Inconclusive results and toxic doses are left out. Rule as the data show it: active = T/C of 150% or more; inactive = T/C below 125%.

System: L1210 leukemia ip in BDF1 mice, survival T/C
Assay: NCI In Vivo Anticancer Drug Screen. Data for tumor model L1210 Leukemia (intraperitoneal) in B6D2F1 (BDF1) mice
Conditions: endpoint: mean survival time, higher = longer survival
Procedure, shortened: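 Value reflects the ratio of survival in compound-treated mice to survival in vehicle-treated controls, with both groups carrying the same transplanted tumor.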

[1] = dose: 100.0 mg/kg/injection, schedule: Q01DX009 (ip), vehicle: saline
[2] = dose: 100.0 mg/kg/injection, schedule: Q04DX003 (ip), vehicle: saline
[3] = dose: 200.0 mg/kg/injection, schedule: Q01DX009 (ip), vehicle: saline
[4] = dose: 200.0 mg/kg/injection, schedule: Q04DX003 (ip), vehicle: saline
[5] = dose: 400.0 mg/kg/injection, schedule: Q01DX009 (ip), vehicle: saline
[6] = dose: 400.0 mg/kg/injection, schedule: Q04DX003 (ip), vehicle: saline

Measured: T/C

O=C(Nc1ccccc1Cl)Oc1ccc(C2CCCCC2)cc1
inactive: dose: 100.0 mg/kg/injection, schedule: Q04DX002 (ip), vehicle: Klucel (hydroxypropylcellulose) (HPC) 103 % of control | dose: 200.0 mg/kg/injection, schedule: Q04DX002 (ip), vehicle: Klucel (hydroxypropylcellulose) (HPC) 98 % of control | dose: 400.0 mg/kg/injection, schedule: Q04DX002 (ip), vehicle: Klucel (hydroxypropylcellulose) (HPC) 98 % of control

CC1(C)CCC(=O)C=C1c1c[nH]c2ccccc12
inactive: dose: 100.0 mg/kg/injection, schedule: Q01DX001 (ip), vehicle: other 88 % of control | dose: 200.0 mg/kg/injection, schedule: Q01DX001 (ip), vehicle: other 88 % of control | dose: 400.0 mg/kg/injection, schedule: Q01DX001 (ip), vehicle: other 97 % of control

CCOC(=O)C(O)c1cccc(OC)c1 (centres undefined)
inactive: dose: 100.0 mg/kg/injection, schedule: Q01DX009 (ip), vehicle: saline sonified 92 % of control | dose: 100.0 mg/kg/injection, schedule: Q04DX003 (ip), vehicle: saline sonified 97 % of control | dose: 200.0 mg/kg/injection, schedule: Q04DX003 (ip), vehicle: saline sonified 94 % of control | dose: 400.0 mg/kg/injection, schedule: Q01DX009 (ip), vehicle: saline sonified 89 % of control | dose: 400.0 mg/kg/injection, schedule: Q04DX003 (ip), vehicle: saline sonified 103 % of control

CC(=O)Nc1ccc(C)c([N+](=O)[O-])c1
inactive: [1] 100 % of control | [2] 98 % of control | [3] 93 % of control | [4] 93 % of control | [5] 97 % of control | [6] 102 % of control

O=C(O)c1ccc(C(=O)c2ccccc2C(=O)O)cc1
inactive: [1] 105 % of control | [2] 102 % of control | [3] 106 % of control | [4] 112 % of control | [5] 105 % of control | [6] 101 % of control

COc1ccc(C=O)c(Cl)c1OC
inactive: dose: 100.0 mg/kg/injection, schedule: Q01DX009 (ip), vehicle: Klucel (hydroxypropylcellulose) (HPC) 94 % of control | [2] 92 % of control | dose: 200.0 mg/kg/injection, schedule: Q01DX009 (ip), vehicle: Klucel (hydroxypropylcellulose) (HPC) 94 % of control | [4] 108 % of control | [6] 98 % of control

c1ccc(CC2(Cc3ccccc3)SCCS2)cc1
inactive: dose: 100.0 mg/kg/injection, schedule: Q04DX003 (ip), vehicle: Klucel (hydroxypropylcellulose) (HPC) 102 % of control | dose: 200.0 mg/kg/injection, schedule: Q04DX003 (ip), vehicle: Klucel (hydroxypropylcellulose) (HPC) 91 % of control | dose: 400.0 mg/kg/injection, schedule: Q04DX003 (ip), vehicle: Klucel (hydroxypropylcellulose) (HPC) 89 % of control

CCCCCNC(=O)CCCC
inactive: dose: 100.0 mg/kg/injection, schedule: Q01DX001 (ip), vehicle: carboxymethylcellulose (CMC) 103 % of control | dose: 100.0 mg/kg/injection, schedule: Q01DX009 (ip), vehicle: carboxymethylcellulose (CMC) 97 % of control and 108 % of control | dose: 100.0 mg/kg/injection, schedule: Q04DX002 (ip), vehicle: carboxymethylcellulose (CMC) 97 % of control | dose: 100.0 mg/kg/injection, schedule: Q04DX003 (ip), vehicle: carboxymethylcellulose (CMC) 101 % of control | dose: 200.0 mg/kg/injection, schedule: Q01DX001 (ip), vehicle: carboxymethylcellulose (CMC) 104 % of control | dose: 200.0 mg/kg/injection, schedule: Q01DX009 (ip), vehicle: carboxymethylcellulose (CMC) 101 % of control and 103 % of control | dose: 200.0 mg/kg/injection, schedule: Q04DX002 (ip), vehicle: carboxymethylcellulose (CMC) 97 % of control | dose: 200.0 mg/kg/injection, schedule: Q04DX003 (ip), vehicle: carboxymethylcellulose (CMC) 97 % of control | dose: 400.0 mg/kg/injection, schedule: Q04DX002 (ip), vehicle: carboxymethylcellulose (CMC) 97 % of control | dose: 400.0 mg/kg/injection, schedule: Q04DX003 (ip), vehicle: carboxymethylcellulose (CMC) 94 % of control

CCCCCOC(=O)CN(CC(=O)OCCCCC)c1ccc(C=O)cc1
inactive: dose: 100.0 mg/kg/injection, schedule: Q04DX003 (ip), vehicle: saline with Tween-80 103 % of control | dose: 200.0 mg/kg/injection, schedule: Q04DX003 (ip), vehicle: saline with Tween-80 100 % of control | dose: 400.0 mg/kg/injection, schedule: Q04DX003 (ip), vehicle: saline with Tween-80 92 % of control

CC(=O)NC(C)C1(O)CCCCC1 (centres undefined)
inactive: [1] 101 % of control | [3] 96 % of control | [5] 98 % of control

Cc1cc(C)c(O)c(N=O)c1.[Cu+2]
inactive: dose: 50.0 mg/kg/injection, schedule: Q01DX001 (ip), vehicle: saline 101 % of control | dose: 100.0 mg/kg/injection, schedule: Q01DX001 (ip), vehicle: saline 97 % of control | dose: 200.0 mg/kg/injection, schedule: Q01DX001 (ip), vehicle: saline 101 % of control | dose: 400.0 mg/kg/injection, schedule: Q01DX001 (ip), vehicle: saline 97 % of control

CCCCCCCCCCCCOC(=O)C[n+]1cccc(C(=O)NC)c1
inactive: dose: 12.5 mg/kg/injection, schedule: Q04DX003 (ip), vehicle: saline with Tween-80 101 % of control | dose: 25.0 mg/kg/injection, schedule: Q04DX003 (ip), vehicle: saline with Tween-80 97 % of control | dose: 50.0 mg/kg/injection, schedule: Q04DX003 (ip), vehicle: saline with Tween-80 95 % of control
